Measurements from US11725015B2, “Macrocyclic compound and uses thereof” (President and Fellows of Harvard College, priority 2017, dated 2023).

Assays:
[1] = test system: human squamous cell carcinoma of the head and neck (SCCHN) cell line FaDu; experiment: FaDu growth inhibition assay; type: cell-based; conditions: 3 days incubation, CellTiter-Glo
Experimental: In this assay, the growth inhibitory activity of test compounds in a human squamous cell carcinoma of the head and neck (SCCHN) cell line FaDu was measured. FaDu cells were maintained in an RPMI-1640 (Wako Pure Chemical Industries, Ltd., 187-02021) medium containing 10% fetal bovine serum (FBS: Nichirei, 12D168), and penicillin and streptomycin in a 5% CO2 incubator (37° C.). To each well of a 96 well plate (Becton, Dickinson and Company, 353219), 75 μL of FaDu cell suspension adjusted to a concentration of 4×10^4 cells/mL with the culture medium was added, and the cells were incubated overnight in a 5% CO2 incubator (37° C.). On the next day, 25 μL of Compound (1) or Halichondrin B in three-fold dilution series suspended in the culture medium was added to each well, and the resultant was incubated for 3 days in a 5% CO2 incubator (37° C.). Then, cell viability was determined by CellTiter-Glo® Luminescent Cell Viability Assay (Promega) with EnVision 2103 Multilabel Reader (Perkin-Elmer, Wellesley, Mass.). Value of the wells containing cells without adding the test compounds was defined as 100% and the value of the wells containing no cells was defined as 0%. The concentration of the test compound necessary for inhibiting the cell growth by 50% (i.e., an IC50 value) was calculated, and shown in Table 1.

[2] = test system: HSC-2-Luc orthotopic transplantation (tongue); experiment: HSC-2 orthotopic transplantation mouse model; type: in vivo, mice
[3] = target: T1, tubulin protein purified from porcine brain (Sus scrofa, UniProt P02550+P02554); experiment: Cell-free tubulin polymerization assay; type: biochemical; conditions: final concentrations 0.625-10 μmol/L
T1 construct: lyophilized tubulin protein purified from porcine brain; purchased Cytoskeleton, Inc. BK011P; host or cells: porcine brain (tissue-purified)
Experimental: Tubulin Polymerization Assay kit was purchased from Cytoskeleton, Inc. (Cat. #BK011P). The kit contained 1 bottle of lyophilized tubulin protein purified from porcine brain, 3 tubes of lyophilized GTP, 2 bottles of lyophilized assay buffer, and 1 bottle of tubulin glycerol buffer. Assay buffer was prepared by dissolving the contents in 10 mL of deionized and sterilized water. This solution contained 80 mmol/L piperazine-N,N′-bis[2-ethanesulfonic acid] sesquisodium salt, 2.0 mmol/L magnesium chloride, 0.5 mmol/L ethylene glycol-bis(2-amino-ethyl ether) N,N,N′,N′-tetra-acetic acid, pH 6.9, and 10 μmol/L fluorescent reporter. The buffer was stored at −70° C. until use. […]
In the tubulin polymerization assay, reaction mixture was prepared by mixing 820 μL of assay buffer, 17.6 μL of GTP stock solution, and 600 μL of tubulin glycerol buffer. […] Fluorescence emission at 460 nm (excitation wavelength at 360 nm) was measured every 2 minutes for 90 minutes using the SpectraMax® M5e microplate reader (Molecular Devices). Tubulin polymerization was followed by fluorescence enhancement due to the incorporation of a fluorescence reporter into microtubules as polymerization occurred. […]

[4] = test system: FaDu subcutaneous xenograft; experiment: Antitumor effects in FaDu subcutaneous xenograft model in combination with cetuximab in mice, single dose (Test Example 21); type: in vivo; conditions: single dose Day 1
Experimental: A human squamous cell carcinoma of the head and neck (SCCHN) cell line FaDu, which had been cultured in an RPMI-1640 medium containing 10% FBS, and penicillin-streptomycin, was adjusted to a concentration of 5×10^7 cells/mL with Hanks' Balanced Salt Solution to prepare a cell suspension. The cell suspension was inoculated in a volume of 100 μL into a subcutaneous part of a right flank of athymic mice (CAnN.Cg-Foxnlnu/CrlCrlj, female, 7 weeks old, Charles River Japan Inc.). Ten days after cell inoculation (Day 1), the length and the width of a tumor in each mouse were measured by using an electronic digital caliper (Mitutoyo Corporation), so as to calculate the volume of the tumor in accordance with the following calculation formula: Tumor volume (mm^3)=Longest diameter (mm)×Shortest diameter (mm)×Shortest diameter (mm)/2 Relative tumor volume (RTV)=Tumor volume (day X)/Tumor volume (the first day)
On the basis of TV, the mice were randomly grouped (Day 1). Each group was consisted in six mice. Compound (1) was dissolved in DMSO and a solution was stored in the freezer before use.

T1 sequence (P02554 whole entry): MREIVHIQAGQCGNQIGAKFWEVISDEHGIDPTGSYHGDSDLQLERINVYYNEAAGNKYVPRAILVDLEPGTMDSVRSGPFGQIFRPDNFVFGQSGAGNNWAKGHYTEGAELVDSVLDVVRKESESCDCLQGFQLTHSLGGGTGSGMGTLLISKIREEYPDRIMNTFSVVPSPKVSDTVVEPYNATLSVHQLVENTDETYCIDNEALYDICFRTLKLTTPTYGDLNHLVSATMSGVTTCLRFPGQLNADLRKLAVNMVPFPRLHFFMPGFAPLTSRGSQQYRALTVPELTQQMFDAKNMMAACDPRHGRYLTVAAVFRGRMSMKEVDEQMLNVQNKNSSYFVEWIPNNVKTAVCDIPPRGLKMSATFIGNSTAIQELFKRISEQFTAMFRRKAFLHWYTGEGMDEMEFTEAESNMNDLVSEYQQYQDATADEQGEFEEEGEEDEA
T1 sequence (P02550 whole entry): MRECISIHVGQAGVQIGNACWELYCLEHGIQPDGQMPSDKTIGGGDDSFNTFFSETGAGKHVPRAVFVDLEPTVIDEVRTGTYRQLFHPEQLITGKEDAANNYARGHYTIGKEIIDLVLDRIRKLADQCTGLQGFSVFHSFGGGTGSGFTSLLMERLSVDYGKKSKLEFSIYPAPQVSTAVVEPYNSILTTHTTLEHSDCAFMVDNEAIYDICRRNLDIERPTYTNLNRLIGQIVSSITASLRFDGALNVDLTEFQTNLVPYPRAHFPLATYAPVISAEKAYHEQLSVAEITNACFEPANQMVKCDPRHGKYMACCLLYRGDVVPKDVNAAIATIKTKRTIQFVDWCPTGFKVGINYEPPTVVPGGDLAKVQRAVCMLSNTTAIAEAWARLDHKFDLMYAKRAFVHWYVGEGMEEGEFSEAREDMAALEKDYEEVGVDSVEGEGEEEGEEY

Compound: C=C1C[C@@H]2CC[C@@]34C[C@H]5O[C@H]6[C@@H](O3)[C@H]3O[C@H](CC[C@@H]3O[C@H]6C5O4)CC(=O)O[C@@H]3[C@@H](C)[C@@H]4O[C@@H]5C[C@]6(C[C@@H]7O[C@]8(C[C@H](C)[C@@H]9O[C@H](CN)[C@H](O)C[C@@H]9O8)C[C@H](C)[C@@H]7O6)O[C@@H]5C[C@@H]4O[C@H]3C[C@H]3O[C@@H](CC[C@@H]1O2)C[C@@H](C)C3=C [Compound (1)]
- IC50 [1]: 0.0714 nM
- survived mice on Day 100 ([2]; Compound (1)+CTX combination group, n=16): 10
- bioluminescence signal ([2]; with cetuximab, after Day 14): clearly reduced the bioluminescence signal in all mice
- effect on tubulin polymerization [3]: inhibited tubulin polymerization in a concentration-dependent manner
- antitumor efficacy with CTX ([4]; 180 μg/kg + CTX 10 mg/kg): stronger than that of CTX monotherapy with tumor regression
- antitumor efficacy with CTX ([4]; 20 mg/kg + CTX 10 mg/kg): tended to be stronger than that of CTX monotherapy
- antitumor efficacy with CTX ([4]; 60 mg/kg + CTX 10 mg/kg): stronger than that of CTX monotherapy with tumor regression
